# According to patent US9980928B2, “Hydroxy aliphatic substituted phenyl aminoalkyl ether derivatives” (PROUS INSTITUTE FOR BIOMEDICAL RESEARCH, S.A., priority 2012, dated 2018):
# Counter-ions that a name gives are not always drawn. Like-named read-outs stand apart in the source and are kept apart here.
# Legend:
# uptake of serotonin = uptake of serotonin (Homo sapiens, UniProt P31645); test: Uptake inhibition of serotonin, cellular assay; assay type: cell-based
# Description: (§1) The effect of the compounds of the present invention as inhibitors of the uptake of norepinephrine and serotonin in cellular assays at concentrations that range from […] to 1 nM is determined following the methods described in Galli, A. et al. J Exp Biol 1995, 198(Pt. 10): 2197-212 and Gu, H. et al. J Biol Chem. 1994, 269(10):7124-30.
# uptake of norepinephrine = uptake of norepinephrine (Homo sapiens, UniProt P23975); test: Uptake inhibition of norepinephrine, cellular assay; assay type: cell-based
# Sequence of uptake of norepinephrine (P23975 whole entry): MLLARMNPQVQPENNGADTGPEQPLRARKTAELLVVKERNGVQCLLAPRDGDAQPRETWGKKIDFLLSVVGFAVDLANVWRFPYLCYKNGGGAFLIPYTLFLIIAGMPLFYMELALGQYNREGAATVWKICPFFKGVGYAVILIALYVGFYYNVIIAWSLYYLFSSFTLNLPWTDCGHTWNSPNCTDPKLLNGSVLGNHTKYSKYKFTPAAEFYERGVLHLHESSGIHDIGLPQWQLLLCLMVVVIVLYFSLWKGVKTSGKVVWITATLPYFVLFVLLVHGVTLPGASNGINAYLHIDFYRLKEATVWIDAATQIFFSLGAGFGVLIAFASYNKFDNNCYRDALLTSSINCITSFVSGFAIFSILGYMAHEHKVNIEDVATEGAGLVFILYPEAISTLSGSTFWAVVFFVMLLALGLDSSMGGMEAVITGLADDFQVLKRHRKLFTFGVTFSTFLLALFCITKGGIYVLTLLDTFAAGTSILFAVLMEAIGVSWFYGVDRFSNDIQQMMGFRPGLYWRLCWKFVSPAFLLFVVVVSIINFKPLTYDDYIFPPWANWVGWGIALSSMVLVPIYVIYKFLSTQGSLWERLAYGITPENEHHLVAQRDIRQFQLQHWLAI
# Description: as §1
# serotonin transporter = molecular target: T1, serotonin transporter (Homo sapiens, UniProt P31645); test: Serotonin transporter binding radioligand inhibition ([3H]-imipramine); details: read-out: serotonin binding inhibition
# T1 construct: expressed in transfected cells; host or cells: CHO cells
# T1 sequence (P31645 whole entry): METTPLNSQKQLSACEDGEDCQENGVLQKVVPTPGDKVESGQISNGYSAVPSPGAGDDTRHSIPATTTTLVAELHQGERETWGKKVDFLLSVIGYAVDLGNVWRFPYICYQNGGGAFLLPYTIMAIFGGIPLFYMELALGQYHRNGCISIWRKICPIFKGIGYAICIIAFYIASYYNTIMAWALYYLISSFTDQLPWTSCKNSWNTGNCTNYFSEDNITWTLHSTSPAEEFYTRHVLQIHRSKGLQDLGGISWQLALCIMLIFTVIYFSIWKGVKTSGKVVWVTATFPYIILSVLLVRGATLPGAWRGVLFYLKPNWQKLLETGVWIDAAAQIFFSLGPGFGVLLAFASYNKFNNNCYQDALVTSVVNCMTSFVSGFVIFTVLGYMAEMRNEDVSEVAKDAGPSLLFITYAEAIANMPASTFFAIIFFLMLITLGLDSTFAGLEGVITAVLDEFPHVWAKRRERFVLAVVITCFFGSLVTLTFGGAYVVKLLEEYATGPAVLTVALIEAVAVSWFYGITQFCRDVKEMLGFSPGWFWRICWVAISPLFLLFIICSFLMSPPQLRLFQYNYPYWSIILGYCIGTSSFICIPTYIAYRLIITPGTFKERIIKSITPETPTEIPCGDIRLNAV
# From the text: The serotonin transporter removes serotonin from the synaptic deft. The serotonin transporter terminates the effects of […], enabling its reuse by the presynaptic neuron.
# [1] = molecular target: T2, norepinephrine (NE) transporter (Homo sapiens, UniProt P23975); test: Norepinephrine transporter binding radioligand inhibition ([3H]-nisoxetine); details: concentration 10 μM
# T2 construct: expressed in transfected cells; host or cells: CHO cells
# T2 sequence (P23975 whole entry): as the sequence (P23975 whole entry) above
# Description: The norepinephrine (NE) transporter removes NE from the synaptic cleft. The NE transporter terminates the effects of […], enabling its reuse by the presynaptic neuron. The in vitro binding of the compounds of the invention to the NE transporter and the percent inhibition of control-specific binding ([^3H]-nisoxetine in human recombinant CHO cells) is determined following the method described in Pacholczyk et al., (Nature 1991, 350(6316): 350-4.
# [2] = read-out: Serotonin reuptake inhibition (IC50 μM)
# [3] = read-out: Norepinephrine reuptake inhibition (IC50 μM)
# [4] = Serotonin reuptake inhibition (IC50 μM)
# [5] = Norepinephrine reuptake inhibition (IC50 μM)
# Sequence of uptake of serotonin (P31645 whole entry): as the sequence (P31645 whole entry) above
Structure (SMILES),IC50 (uptake of serotonin; [2]) [µM],IC50 (uptake of norepinephrine; [3]) [µM],inhibition at 10 µM (serotonin transporter; concentration 10 μM) [%],inhibition at 10 µM [1] [%],IC50 (uptake of serotonin; [4]) [µM],IC50 (uptake of norepinephrine; [5]) [µM],inhibition at 10 µM (serotonin transporter) [%]
"CNCCC(Oc1ccc(CCO)cc1)c1ccccc1 (single isomer, unassigned) [Example 6, 2-[4-[3-(Methylamino)-1-phenylpropoxy]phenyl]ethanol ferulic acid salt]",2.5 to 4.8,1.6 to 2.9,–,–,–,–,–
"CNCCC(Oc1ccc(CCO)cc1)c1ccccc1 (single isomer, unassigned) [Example 7, 2-[4-[3-(Methylamino)-1-phenylpropoxy]phenyl]ethanol caffeic acid salt]",2.5 to 4.8,1.6 to 2.9,68 to 82,–,–,–,–
"O=C1CCCN1CCOc1ccc(CCO)cc1 [Example 1, 1-[2-[4-(2-Hydroxyethyl)phenoxy]ethyl]pyrrolidin-2-one]",2.5 to 4.8,1.6 to 2.9,68 to 82,65 to 90,–,–,–
"CNCCC(Oc1ccc(CCO)cc1)c1ccccc1 [Example 5, 2-[4-[3-(Methylamino)-1-phenylpropoxy]phenyl]ethanol L-ascorbic acid salt]",–,–,–,65 to 90,2.5 to 4.8,1.6 to 2.9,68 to 82
"CNCCC(Oc1ccc(CCO)cc1)c1ccccc1 (centres unmarked) [Example 8, 2-[4-[3-(Methylamino)-1-phenylpropoxy]phenyl]ethanol valproic acid salt]",–,–,–,–,2.5 to 4.8,1.6 to 2.9,–
"CNCCC(Oc1ccc(CCO)cc1)c1ccccc1 [Example 9, 2-[4-[3-(Methylamino)-1-phenylpropoxy]phenyl]ethanol (R)-lipoic acid salt]",–,–,–,–,2.5 to 4.8,1.6 to 2.9,–
"CNCCC(Oc1ccc(CCOC(C)=O)cc1)c1ccccc1 (centres unmarked) [Example 10, 4-[3-(Methylamino)-1-phenylpropoxy]phenethyl acetate hydrochloride]",2.5 to 4.8,1.6 to 2.9,68 to 82,65 to 90,–,–,–
"CCCC(CCC)C(=O)N(C)CCC(Oc1ccc(CCO)cc1)c1ccccc1 (centres unmarked) [Example 11, N-[3-[4-(2-Hydroxyethyl)phenoxy]-3-phenylpropyl]-N-methyl-2-propylpentanamide]",2.5 to 4.8,1.6 to 2.9,68 to 82,65 to 90,–,–,–
"CNCC[C@@H](Oc1ccc(CCO)cc1)c1cccs1 [Example 13, (R)-2-[4-[3-(Methylamino)-1-(thiophen-2-yl)propoxy]phenyl]ethanol]",2.6,2.8,79,80,–,–,–
"CNCCC(Oc1ccc(CCCCO)cc1)c1ccccc1 (centres unmarked) [Example 14, 4-[4-[3-(Methylamino)-1-phenylpropoxy]phenyl]butan-1-ol hydrochloride]",0.32,0.74,89,85,–,–,–
"CN(CCC(Oc1ccc(/C=C/CO)cc1)c1ccccc1)C(=O)OC(C)(C)C (centres unmarked) [Example 15, (E)-tert-Butyl [3-[4-(3-hydroxyprop-1-enyl)phenoxy]-3-phenylpropyl](methyl)carbamate]",2.5 to 4.8,1.6 to 2.9,68 to 82,65 to 90,–,–,–
"CNCCC(Oc1ccc(CCCO)cc1)c1ccccc1 (centres unmarked) [Example 16, 3-[4-[3-(Methylamino)-1-phenylpropoxy]phenyl]propan-1-ol hydrochloride]",2.36,0.46,78,90,–,–,–
"CNCCC(Oc1ccc(CO)cc1)c1ccccc1 (centres unmarked) [Example 17, [4-[3-(Methylamino)-1-phenylpropoxy]phenyl]methanol hydrochloride]",0.42,0.13,97,94,–,–,–
"CNCCC(Oc1cc(CO)cc(CO)c1)c1ccccc1 (centres unmarked) [Example 19, [5-[3-(Methylamino)-1-phenylpropoxy]-1,3-phenylene]dimethanol hydrochloride]",4.35,1.59,79,75,–,–,–
"CNCCC(Oc1cc(CCO)cc(CCO)c1)c1ccccc1 (centres unmarked) [Example 20, 2,2′-[5-[3-(Methylamino)-1-phenylpropoxy]-1,3-phenylene]diethanol]",2.5 to 4.8,1.6 to 2.9,68 to 82,65 to 90,–,–,–
"CNCCC(Oc1cc(CCCO)cc(CCCO)c1)c1ccccc1 (centres unmarked) [Example 21, 3,3′-[5-[3-(Methylamino)-1-phenylpropoxy]-1,3-phenylene]dipropan-1-ol]",2.5 to 4.8,1.6 to 2.9,68 to 82,65 to 90,–,–,–
"CNCCC(Oc1cc(CCCCO)cc(CCCCO)c1)c1ccccc1 (centres unmarked) [Example 22, 4,4′-[5-[3-(Methylamino)-1-phenylpropoxy]-1,3-phenylene]dibutan-1-ol]",2.5 to 4.8,1.6 to 2.9,68 to 82,65 to 90,–,–,–
"CNCCC(Oc1ccc(CCO[C@@H]2O[C@H](CO)[C@@H](O)[C@H](O)[C@H]2O)cc1)c1ccccc1 (stereo partly drawn) [Example 23, (2R,3S,4S,5R,6R)-2-(Hydroxymethyl)-6-[4-[3-(methylamino)-1-phenylpropoxy]phenethoxy]tetrahydro-2H-pyran-3,4,5-triol]",2.5 to 4.8,1.6 to 2.9,68 to 82,65 to 90,–,–,–
"CN(C)CCC(Oc1ccc(CCO)cc1)c1ccccc1 (centres unmarked) [Example 24, 2-[4-(3-Dimethylamino-1-phenylpropoxy)phenyl]ethanol]",2.5 to 4.8,1.6 to 2.9,68 to 82,65 to 90,–,–,–
"CNCCC(Oc1ccc(C/C=C/CO)cc1)c1ccccc1 (centres unmarked) [Example 25, 4-[4-(3-Methylamino-1-phenylpropoxy)phenyl]but-2-en-1-ol]",2.5 to 4.8,1.6 to 2.9,68 to 82,65 to 90,–,–,–
"CNCCC(Oc1ccc(CCCCCCO)cc1)c1ccccc1 (centres unmarked) [Example 26, 6-[4-(3-Methylamino-1-phenylpropoxy)phenyl]hexan-1-ol]",2.5 to 4.8,1.6 to 2.9,68 to 82,65 to 90,–,–,–
"CNCCC(Oc1ccc(/C=C/CCCCO)cc1)c1ccccc1 (centres unmarked) [Example 27, 6-[4-(3-Methylamino-1-phenylpropoxy)phenyl]hex-5-en-1-ol]",2.5 to 4.8,1.6 to 2.9,68 to 82,65 to 90,–,–,–
"CNCC[C@H](Oc1ccc(CCO)cc1)c1cccs1 [Example 28, (S)2-[4-(3-Methylamino-1-thiophen-2-ylpropoxy)phenyl]ethanol]",2.5 to 4.8,1.6 to 2.9,68 to 82,65 to 90,–,–,–
"OCCc1ccc(OC(c2ccccc2)C2CNCCO2)cc1 (centres unmarked) [Example 29, 2-[4-(Morpholin-2-yl(phenyl)methoxy)phenyl]ethanol]",2.5 to 4.8,1.6 to 2.9,68 to 82,65 to 90,–,–,–
"OCCc1ccc(OC[C@@H]2CNCC[C@H]2c2ccc(F)cc2)cc1 [Example 30, 2-[4-[[(3S,4R)-4-(4-Fluorophenyl)piperidin-3-yl]methoxy]phenyl]ethanol]",2.5 to 4.8,1.6 to 2.9,68 to 82,65 to 90,–,–,–
"CN(C)CC(Oc1ccc(CCO)cc1)C1CCCCC1O (centres unmarked) [Example 31, 2-[2-Dimethylamino-1-[4-(2-hydroxyethyl)phenoxy]ethyl]cyclohexanol]",2.5 to 4.8,1.6 to 2.9,68 to 82,65 to 90,–,–,–
"CN(C)CC(Oc1ccc(CCO)cc1)C1(O)CCCCC1 (centres unmarked) [Example 32, 1-[2-Dimethylamino-1-[4-(2-hydroxyethyl)phenoxy]-ethyl]-cyclohexanol]",2.5 to 4.8,1.6 to 2.9,68 to 82,65 to 90,–,–,–
